Consider 8 compounds from ChEMBL document CHEMBL1132094, “Human telomerase inhibition by substituted acridine derivatives” (Bioorg Med Chem Lett, 1999).

Activity calls are given as the source filed them. No cut-off for these calls is given here.

The first assay deals with A2780. The assay is described as follows: In vitro cytotoxicity against human ovarian carcinoma cell line A2780 using sulforhodamine B (SRB) assay. It counts as functional, cell-based. On the technique in general: In SRB staining, fixed cells bind dye roughly in proportion to their protein.
What is called IC50 is the concentration at which inhibition is half-maximal. High values mean weaker potency, low ones greater potency. In turn, `O=C(CCN1CCC(Cc2ccccc2)CC1)Nc1ccc2cc3ccc(NC(=O)CCN4CCC(Cc5ccccc5)CC4)cc3nc2c1` showed an IC50 of 0.31 µM.
On to `O=C(CCN1CCCCC1CCO)Nc1ccc2cc3ccc(NC(=O)CCN4CCCCC4CCO)cc3nc2c1` (stereo unspecified), for which 3.2 µM corresponded to half-maximal inhibition (IC50).
Same read-out and setting: the figure for `O=C(CCN1CCC(O)CC1)Nc1ccc2cc3ccc(NC(=O)CCN4CCC(O)CC4)cc3nc2c1` is 6.2 µM.
Same read-out and setting: the figure for `O=C(CCN1CCCC1)Nc1ccc2cc3ccc(NC(=O)CCN4CCCC4)cc3nc2c1` is 2.65 µM; for `CC1CCCCN1CCC(=O)Nc1ccc2cc3ccc(NC(=O)CCN4CCCCC4C)cc3nc2c1` (stereo unspecified) it is 1.75 µM.
For the compound `O=C(CCN1CCCCC1CO)Nc1ccc2cc3ccc(NC(=O)CCN4CCCCC4CO)cc3nc2c1` (stereo unspecified), the IC50 stood at 2.3 µM.
Turning to `O=C(CCN1CCCCCCC1)Nc1ccc2cc3ccc(NC(=O)CCN4CCCCCCC4)cc3nc2c1`, the midpoint of inhibition, the IC50, lay at 1.3 µM.
With `O=C(CCN1CCOCC1)Nc1ccc2cc3ccc(NC(=O)CCN4CCOCC4)cc3nc2c1`, the midpoint of inhibition, the IC50, lay at 3.1 µM.

A further assay has as its system CH1. The assay is described as follows: In vitro cytotoxicity against human ovarian carcinoma cell line CH1 using sulforhodamine B (SRB) assay. It counts as functional, cell-based.
`O=C(CCN1CCC(Cc2ccccc2)CC1)Nc1ccc2cc3ccc(NC(=O)CCN4CCC(Cc5ccccc5)CC4)cc3nc2c1` came in with an IC50 of 0.11 µM. In other words, the sub-micromolar range.
Same read-out and setting: the figure for `O=C(CCN1CCCCC1CCO)Nc1ccc2cc3ccc(NC(=O)CCN4CCCCC4CCO)cc3nc2c1` (stereo unspecified) is 11 µM; for `O=C(CCN1CCC(O)CC1)Nc1ccc2cc3ccc(NC(=O)CCN4CCC(O)CC4)cc3nc2c1` it is 15 µM; for `O=C(CCN1CCCC1)Nc1ccc2cc3ccc(NC(=O)CCN4CCCC4)cc3nc2c1` it is 8.2 µM.
Turning to `CC1CCCCN1CCC(=O)Nc1ccc2cc3ccc(NC(=O)CCN4CCCCC4C)cc3nc2c1` (stereo unspecified), it took 2.3 µM to reach half-maximal inhibition (IC50). This IC50 is about 3.6-fold lower than that of the compound before.
On the same count and under the same terms, under `O=C(CCN1CCCCC1CO)Nc1ccc2cc3ccc(NC(=O)CCN4CCCCC4CO)cc3nc2c1` (stereo unspecified) stands 10.5 µM; under `O=C(CCN1CCCCCCC1)Nc1ccc2cc3ccc(NC(=O)CCN4CCCCCCC4)cc3nc2c1`, 2.2 µM; under `O=C(CCN1CCOCC1)Nc1ccc2cc3ccc(NC(=O)CCN4CCOCC4)cc3nc2c1`, 15 µM.

The target in the next assay is DNA polymerase I, thermostable (Thermus aquaticus) (UniProt P19821). The assay can be described thus: Ability to inhibit Taq polymerase in vitro at a concentration of 10 uM; NI means No inhibition.
Chain of DNA polymerase I, thermostable (Thermus aquaticus) (P19821 whole entry): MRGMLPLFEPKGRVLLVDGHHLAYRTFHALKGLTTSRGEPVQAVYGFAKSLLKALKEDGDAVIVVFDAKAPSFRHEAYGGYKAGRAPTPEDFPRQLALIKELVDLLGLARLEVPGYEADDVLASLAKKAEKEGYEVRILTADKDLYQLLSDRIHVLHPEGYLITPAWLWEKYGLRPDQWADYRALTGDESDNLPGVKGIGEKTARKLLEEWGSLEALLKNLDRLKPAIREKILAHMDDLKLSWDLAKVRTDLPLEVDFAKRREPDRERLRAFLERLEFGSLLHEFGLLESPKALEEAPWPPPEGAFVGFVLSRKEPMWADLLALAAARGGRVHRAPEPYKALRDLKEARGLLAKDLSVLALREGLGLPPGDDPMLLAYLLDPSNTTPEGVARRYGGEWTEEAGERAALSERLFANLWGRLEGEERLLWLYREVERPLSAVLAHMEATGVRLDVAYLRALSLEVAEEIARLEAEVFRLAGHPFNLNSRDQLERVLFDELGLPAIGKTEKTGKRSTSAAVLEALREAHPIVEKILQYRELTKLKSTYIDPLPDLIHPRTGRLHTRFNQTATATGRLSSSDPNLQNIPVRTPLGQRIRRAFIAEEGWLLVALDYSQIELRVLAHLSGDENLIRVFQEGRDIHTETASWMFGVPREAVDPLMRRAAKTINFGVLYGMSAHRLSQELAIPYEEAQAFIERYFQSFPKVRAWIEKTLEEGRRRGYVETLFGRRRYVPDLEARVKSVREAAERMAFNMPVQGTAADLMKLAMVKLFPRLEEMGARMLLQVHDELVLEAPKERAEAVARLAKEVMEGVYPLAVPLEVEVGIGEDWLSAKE
Take `O=C(CCN1CCC(Cc2ccccc2)CC1)Nc1ccc2cc3ccc(NC(=O)CCN4CCC(Cc5ccccc5)CC4)cc3nc2c1`: the inhibition entry is “inactive”.
With `O=C(CCN1CCCCC1CCO)Nc1ccc2cc3ccc(NC(=O)CCN4CCCCC4CCO)cc3nc2c1` (stereo unspecified), the inhibition result is “inactive”.
On the same count and under the same terms, the entry for `O=C(CCN1CCC(O)CC1)Nc1ccc2cc3ccc(NC(=O)CCN4CCC(O)CC4)cc3nc2c1` is “inactive”; for `O=C(CCN1CCCC1)Nc1ccc2cc3ccc(NC(=O)CCN4CCCC4)cc3nc2c1` it is “inactive”.
On the same count and under the same terms, under `CC1CCCCN1CCC(=O)Nc1ccc2cc3ccc(NC(=O)CCN4CCCCC4C)cc3nc2c1` (stereo unspecified) stands “inactive”.
As to `O=C(CCN1CCCCC1CO)Nc1ccc2cc3ccc(NC(=O)CCN4CCCCC4CO)cc3nc2c1` (stereo unspecified), the inhibition result is “inactive”.
As to `O=C(CCN1CCCCCCC1)Nc1ccc2cc3ccc(NC(=O)CCN4CCCCCCC4)cc3nc2c1`, the inhibition entry is “inactive”.
For `O=C(CCN1CCOCC1)Nc1ccc2cc3ccc(NC(=O)CCN4CCOCC4)cc3nc2c1`, the inhibition result was “inactive”.

The next assay has the same target. The assay is described as follows: Ability to inhibit Taq polymerase in vitro at a concentration of 20 uM; NI means No inhibition.
For `O=C(CCN1CCC(Cc2ccccc2)CC1)Nc1ccc2cc3ccc(NC(=O)CCN4CCC(Cc5ccccc5)CC4)cc3nc2c1`, the inhibition result was “inactive”.
On the same count and under the same terms, under `O=C(CCN1CCCCC1CCO)Nc1ccc2cc3ccc(NC(=O)CCN4CCCCC4CCO)cc3nc2c1` (stereo unspecified) stands “inactive”; under `O=C(CCN1CCC(O)CC1)Nc1ccc2cc3ccc(NC(=O)CCN4CCC(O)CC4)cc3nc2c1`, “inactive”; under `O=C(CCN1CCCC1)Nc1ccc2cc3ccc(NC(=O)CCN4CCCC4)cc3nc2c1`, “inactive”.
Still for that read-out and setting: under `CC1CCCCN1CCC(=O)Nc1ccc2cc3ccc(NC(=O)CCN4CCCCC4C)cc3nc2c1` (stereo unspecified) stands “inactive”; under `O=C(CCN1CCCCC1CO)Nc1ccc2cc3ccc(NC(=O)CCN4CCCCC4CO)cc3nc2c1` (stereo unspecified), “inactive”; under `O=C(CCN1CCCCCCC1)Nc1ccc2cc3ccc(NC(=O)CCN4CCCCCCC4)cc3nc2c1`, “inactive”.
The same measure, in the same setting: under `O=C(CCN1CCOCC1)Nc1ccc2cc3ccc(NC(=O)CCN4CCOCC4)cc3nc2c1` stands “inactive”.

For a further assay the target is unchanged. The assay can be described thus: Ability to inhibit Taq polymerase in vitro at a concentration of 50 uM; NI means No inhibition.
For `O=C(CCN1CCC(Cc2ccccc2)CC1)Nc1ccc2cc3ccc(NC(=O)CCN4CCC(Cc5ccccc5)CC4)cc3nc2c1`, the inhibition entry is “inactive”.
On the same count and under the same terms, the entry for `O=C(CCN1CCCCC1CCO)Nc1ccc2cc3ccc(NC(=O)CCN4CCCCC4CCO)cc3nc2c1` (stereo unspecified) is “inactive”.
On the same count and under the same terms, the entry for `O=C(CCN1CCC(O)CC1)Nc1ccc2cc3ccc(NC(=O)CCN4CCC(O)CC4)cc3nc2c1` is “inactive”.
Still for that read-out and setting: the entry for `O=C(CCN1CCCC1)Nc1ccc2cc3ccc(NC(=O)CCN4CCCC4)cc3nc2c1` is “inactive”.
Consider `CC1CCCCN1CCC(=O)Nc1ccc2cc3ccc(NC(=O)CCN4CCCCC4C)cc3nc2c1` (stereo unspecified), for which the inhibition entry was “inactive”.
Still for that read-out and setting: under `O=C(CCN1CCCCC1CO)Nc1ccc2cc3ccc(NC(=O)CCN4CCCCC4CO)cc3nc2c1` (stereo unspecified) stands “inactive”; under `O=C(CCN1CCCCCCC1)Nc1ccc2cc3ccc(NC(=O)CCN4CCCCCCC4)cc3nc2c1`, “inactive”; under `O=C(CCN1CCOCC1)Nc1ccc2cc3ccc(NC(=O)CCN4CCOCC4)cc3nc2c1`, “inactive”.

The target of another assay is Telomerase reverse transcriptase (Homo sapiens, UniProt O14746). The assay can be described thus: Ability to inhibit human telomerase in a modified cell-free TRAP assay using extracts from A2780 cell line.
Chain of Telomerase reverse transcriptase (O14746 whole entry): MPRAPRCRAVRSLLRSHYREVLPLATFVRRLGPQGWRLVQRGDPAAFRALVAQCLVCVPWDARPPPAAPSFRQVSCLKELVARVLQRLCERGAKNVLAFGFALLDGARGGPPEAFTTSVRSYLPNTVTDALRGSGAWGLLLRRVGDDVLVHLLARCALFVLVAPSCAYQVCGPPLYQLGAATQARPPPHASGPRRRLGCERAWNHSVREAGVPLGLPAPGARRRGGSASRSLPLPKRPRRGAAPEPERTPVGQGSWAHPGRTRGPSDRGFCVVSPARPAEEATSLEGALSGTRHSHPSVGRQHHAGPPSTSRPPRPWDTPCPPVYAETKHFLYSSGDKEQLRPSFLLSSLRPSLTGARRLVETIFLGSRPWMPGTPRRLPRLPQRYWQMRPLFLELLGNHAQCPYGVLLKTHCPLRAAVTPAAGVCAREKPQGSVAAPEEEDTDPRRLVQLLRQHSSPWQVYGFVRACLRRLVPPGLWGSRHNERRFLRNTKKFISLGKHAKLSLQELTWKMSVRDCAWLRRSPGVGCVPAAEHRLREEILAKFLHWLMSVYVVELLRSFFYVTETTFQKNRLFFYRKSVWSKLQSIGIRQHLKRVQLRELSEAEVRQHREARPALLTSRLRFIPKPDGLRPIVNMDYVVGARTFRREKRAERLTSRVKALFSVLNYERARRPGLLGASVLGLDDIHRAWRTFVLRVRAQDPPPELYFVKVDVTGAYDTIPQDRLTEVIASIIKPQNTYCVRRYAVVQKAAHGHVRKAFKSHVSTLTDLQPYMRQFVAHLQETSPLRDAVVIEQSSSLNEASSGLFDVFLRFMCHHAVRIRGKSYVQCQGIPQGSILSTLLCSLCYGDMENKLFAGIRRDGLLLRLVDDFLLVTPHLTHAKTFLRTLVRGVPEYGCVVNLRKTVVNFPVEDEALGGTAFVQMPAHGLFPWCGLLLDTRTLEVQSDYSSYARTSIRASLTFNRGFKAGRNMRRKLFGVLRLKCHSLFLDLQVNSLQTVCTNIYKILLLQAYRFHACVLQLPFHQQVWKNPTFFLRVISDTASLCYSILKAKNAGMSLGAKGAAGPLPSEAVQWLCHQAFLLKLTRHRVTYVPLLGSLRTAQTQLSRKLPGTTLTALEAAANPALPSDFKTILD
Take `O=C(CCN1CCC(Cc2ccccc2)CC1)Nc1ccc2cc3ccc(NC(=O)CCN4CCC(Cc5ccccc5)CC4)cc3nc2c1`: the IC50 was over 50 µM.
The same measure, in the same setting: under `O=C(CCN1CCCCC1CCO)Nc1ccc2cc3ccc(NC(=O)CCN4CCCCC4CCO)cc3nc2c1` (stereo unspecified) stands 4.1 µM.
Same read-out and setting: under `O=C(CCN1CCC(O)CC1)Nc1ccc2cc3ccc(NC(=O)CCN4CCC(O)CC4)cc3nc2c1` stands 8 µM; under `O=C(CCN1CCCC1)Nc1ccc2cc3ccc(NC(=O)CCN4CCCC4)cc3nc2c1`, 5.2 µM; under `CC1CCCCN1CCC(=O)Nc1ccc2cc3ccc(NC(=O)CCN4CCCCC4C)cc3nc2c1` (stereo unspecified), 2.6 µM.
Same read-out and setting: under `O=C(CCN1CCCCC1CO)Nc1ccc2cc3ccc(NC(=O)CCN4CCCCC4CO)cc3nc2c1` (stereo unspecified) stands 5.4 µM.
On to `O=C(CCN1CCCCCCC1)Nc1ccc2cc3ccc(NC(=O)CCN4CCCCCCC4)cc3nc2c1`, for which the IC50 is over 50 µM.
Same read-out and setting: the figure for `O=C(CCN1CCOCC1)Nc1ccc2cc3ccc(NC(=O)CCN4CCOCC4)cc3nc2c1` is over 50 µM.

Another assay concerns SK-OV-3. The assay is described as follows: In vitro cytotoxicity against human ovarian carcinoma cell line SKOV-3 using sulforhodamine B (SRB) assay. It counts as functional, cell-based.
On to `O=C(CCN1CCC(Cc2ccccc2)CC1)Nc1ccc2cc3ccc(NC(=O)CCN4CCC(Cc5ccccc5)CC4)cc3nc2c1`, for which inhibition was half-maximal at 0.88 µM (IC50).
As to `O=C(CCN1CCCCC1CCO)Nc1ccc2cc3ccc(NC(=O)CCN4CCCCC4CCO)cc3nc2c1` (stereo unspecified), the IC50 came to 10.5 µM.
Compound `O=C(CCN1CCC(O)CC1)Nc1ccc2cc3ccc(NC(=O)CCN4CCC(O)CC4)cc3nc2c1` yielded an IC50 of 13 µM. This IC50 and that of the compound before are within 1.5-fold of each other.
Still for that read-out and setting: under `O=C(CCN1CCCC1)Nc1ccc2cc3ccc(NC(=O)CCN4CCCC4)cc3nc2c1` stands 2.6 µM; under `CC1CCCCN1CCC(=O)Nc1ccc2cc3ccc(NC(=O)CCN4CCCCC4C)cc3nc2c1` (stereo unspecified), 3.4 µM.
The same measure, in the same setting: the figure for `O=C(CCN1CCCCC1CO)Nc1ccc2cc3ccc(NC(=O)CCN4CCCCC4CO)cc3nc2c1` (stereo unspecified) is 7 µM.
Same read-out and setting: the figure for `O=C(CCN1CCCCCCC1)Nc1ccc2cc3ccc(NC(=O)CCN4CCCCCCC4)cc3nc2c1` is 2.3 µM; for `O=C(CCN1CCOCC1)Nc1ccc2cc3ccc(NC(=O)CCN4CCOCC4)cc3nc2c1` it is 13 µM.
